# Results published in PMC11050087, “Polyphenols from Maackia amurensis Heartwood Protect Neuronal Cells from Oxidative Stress and Prevent Herpetic Infection” (International Journal of Molecular Sciences, 2024).
# Test system: PQ-treated Neuro-2a cells
# Test: ROS analysis in PQ-treated cells (H2DCF-DA)
# Format: cell-based, murine
# Details: PQ 1 mM
# Experimental: We previously studied the effect of stilbens 9, 10, 11, and 13 on cell viability and ROS level in PQ-treated Neuro-2a cells. Here, we evaluated the neuroprotective potential against the toxic effect of PQ of stilbene 1, flavonoid 6 and isoflavonoids 2–5, 7, 12 (Figure 7a–d).
# Figure 7 The effect of polyphenolic compounds isolated from M. amurensis heartwood on cell viability (a–c) and ROS levels (d) in Neuro-2a cells treated with PQ (1 mM). Polyphenolic compounds isolated from M. amurensis heartwood were used at concentrations 10, 1, 0.1 μM. The data are presented as means ± SEM of three independent replicates. (*), (**), and (***) indicate, respectively, p < 0.05, p < 0.005, and p < 0.001 versus PQ-treated cells.
# After 24 h of adhesion, Neuro-2a cells (5 × 10^4 cells/mL) were incubated with polyphenolic compounds at concentrations of 0.1, 1, and 10 µM for 1 h. Then, 120 µM of 6-OHDA or 1 mM of PQ were added to each well, and cells were incubated for 1 h. To study the ROS formation, 20 µL of 2,7-dichlorodihydrofluorescein diacetate solution (H2DCF-DA, Sigma-Aldrich, St. Louis, MO, USA) were added to each well, so that the final concentration was 10 µM. Then, the microplate was incubated for 30 min at 37 °C.
smiles,measurement,value
"O=C1C[C@@H](c2ccc(O)cc2)Oc2cc(O)ccc21 [Compound 6, liquiritigenin]",effect on ROS level in PQ-treated Neuro-2a cells (in words),effectively reduced the ROS level
